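Where inhibition never reached the appropriate level, the endpoint shown equals the highest concentration tested. Otherwise, values were interpolated linearly from a five-concentration, 48-hour dose response in 96-well plates. At the GI50, growth is halved. The concentration for full growth arrest is given as TGI.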 Bounds are passed on as bounds.

The values below come from PubChem BioAssay (NCI).

Test systems include ACHN renal; COLO 205 colon; HOP-92 NSCLC; MCF7 breast; MDA-MB-435; NCI-H226 lung; NCI-H460 lung; NCI/ADR-RES ovarian; OVCAR-4 ovarian; UACC-257 melanoma.
What all share (assay): DTP human tumour cell line panel, 48 h

Take `NC(=S)N/N=C\c1nccc2c(C(F)(F)F)cccc12`: the GI50 was 0.226 µM with ACHN renal; 237 nM with COLO 205 colon; 226 nM in the assay with HOP-92 NSCLC; 0.317 µM with MCF7 breast; 0.481 µM with MDA-MB-435; 0.259 µM in the assay on NCI-H226 lung. In addition, the GI50 is 260 nM in the assay on NCI-H460 lung, 0.349 µM in the assay with NCI/ADR-RES ovarian, 0.162 µM with OVCAR-4 ovarian and 0.29 µM in the assay with UACC-257 melanoma. The TGI in the assay with ACHN renal was 5.58 µM; in the assay on COLO 205 colon it was 10.8 µM; in the assay on HOP-92 NSCLC, 1.35 µM; in the assay with MCF7 breast, 13.3 µM; in the assay with MDA-MB-435 it was 31.5 µM; with NCI-H226 lung, 2.39 µM. Besides, the concentration for total growth inhibition (TGI) with NCI-H460 lung stood at 8.59 µM; in the assay on NCI/ADR-RES ovarian it was 20.4 µM; in the assay with OVCAR-4 ovarian, 24.8 µM; in the assay with UACC-257 melanoma, 0.94 µM.
Take `COC(=O)c1cc2oc(/C=C3/SC(=S)N(NC(C)=O)C3=O)cc2n1C`: the GI50 in the assay with ACHN renal is 15.8 µM; in the assay on COLO 205 colon, 22400 nM; in the assay on HOP-92 NSCLC it was 19600 nM; in the assay on MCF7 breast, 11.6 µM; in the assay on MDA-MB-435 it was 17.6 µM; in the assay with NCI-H226 lung, 21.5 µM. For the same molecule, the GI50 in the assay on NCI-H460 lung was 8260 nM; in the assay on NCI/ADR-RES ovarian, 15.3 µM; in the assay on OVCAR-4 ovarian, 37.7 µM; with UACC-257 melanoma, 30.1 µM. Besides, the TGI in the assay on ACHN renal was 43.5 µM; with COLO 205 colon, greater than 100 µM; in the assay on HOP-92 NSCLC, 44.5 µM; in the assay on MCF7 breast, greater than 100 µM; in the assay on MDA-MB-435, greater than 100 µM; in the assay with NCI-H226 lung it was 51.7 µM. The TGI in the assay on NCI-H460 lung was greater than 100 µM; in the assay with NCI/ADR-RES ovarian it was 51.4 µM; in the assay with OVCAR-4 ovarian, greater than 100 µM; in the assay with UACC-257 melanoma, greater than 100 µM.
Take `C/C=C/[C@@H]1O[C@@H]2COC(=O)C2=C[C@@H]1O`: the GI50 is 3.58 µM with ACHN renal; 2780 nM with COLO 205 colon; 747 nM in the assay on HOP-92 NSCLC; 33.5 µM with MCF7 breast; 18.8 µM in the assay on MDA-MB-435; 17.6 µM with NCI-H226 lung. The GI50 was greater than 57700 nM with NCI-H460 lung, 25.9 µM in the assay with NCI/ADR-RES ovarian, 16.1 µM in the assay on OVCAR-4 ovarian and 21 µM in the assay on UACC-257 melanoma. Further, the concentration for total growth inhibition (TGI) in the assay on ACHN renal was 13.4 µM; in the assay with COLO 205 colon, greater than 19.6 µM; with HOP-92 NSCLC it was 9.35 µM; with MCF7 breast, greater than 100 µM; with MDA-MB-435, 37.3 µM; with NCI-H226 lung, 42 µM. Also, the TGI with NCI-H460 lung is greater than 100 µM; in the assay on NCI/ADR-RES ovarian, 60.5 µM; in the assay on OVCAR-4 ovarian it was 42.8 µM; in the assay on UACC-257 melanoma, 36.9 µM.
In the case of `COc1c2ccccc2c(OC)c2[nH]c(=O)ccc12`, the GI50 with ACHN renal is 7.92 µM; with COLO 205 colon, 4300 nM; with HOP-92 NSCLC, 33500 nM; with MCF7 breast, 4.37 µM; with MDA-MB-435, 1.98 µM; in the assay with NCI-H226 lung, 2.37 µM. For the same molecule, the GI50 in the assay on NCI-H460 lung is 1510 nM; in the assay with NCI/ADR-RES ovarian it was 6.51 µM; in the assay on OVCAR-4 ovarian it was 11.1 µM; with UACC-257 melanoma, 2.5 µM. Moreover, the TGI with ACHN renal is greater than 100 µM; with COLO 205 colon, 14.9 µM; in the assay on HOP-92 NSCLC, greater than 100 µM; in the assay on MCF7 breast, greater than 54.8 µM; in the assay with MDA-MB-435 it was 4.07 µM; with NCI-H226 lung, 7.22 µM. Moreover, the TGI in the assay on NCI-H460 lung was 4 µM; in the assay on NCI/ADR-RES ovarian it was greater than 100 µM; with OVCAR-4 ovarian, greater than 100 µM; with UACC-257 melanoma, 6.39 µM.
Consider `Br[Se]c1ccccn1`, for which the TGI in the assay with ACHN renal worked out at 29.9 µM; in the assay on COLO 205 colon, 30.8 µM; in the assay with HOP-92 NSCLC, 33 µM; with MCF7 breast it was 32.5 µM; in the assay with MDA-MB-435 it was 31.8 µM; in the assay with NCI-H226 lung, 36.8 µM. The TGI in the assay with NCI-H460 lung turned out to be 42 µM; in the assay on NCI/ADR-RES ovarian, 61.6 µM; in the assay on OVCAR-4 ovarian, 30.9 µM; with UACC-257 melanoma it was 31.7 µM.
In the case of `O=C1CSC(=S)N1/N=C/c1ccc(Cl)c([N+](=O)[O-])c1`, the TGI is 45.6 µM in the assay with ACHN renal; greater than 100 µM in the assay on COLO 205 colon; 67.7 µM with HOP-92 NSCLC; 32.7 µM in the assay with MCF7 breast; 54.3 µM with MDA-MB-435; greater than 100 µM with NCI-H226 lung. In addition, the TGI in the assay on NCI-H460 lung is greater than 100 µM; in the assay on NCI/ADR-RES ovarian, 52.5 µM; in the assay with OVCAR-4 ovarian, 50.7 µM; in the assay on UACC-257 melanoma, 62.8 µM.
In the case of `CC1(C)[C@@H](NOCCCN)CC[C@]2(C)[C@H]3C(=O)C=C4[C@@H]5C[C@](C)(C(=O)O)CC[C@]5(C)CC[C@@]4(C)[C@]3(C)CC[C@@H]12`, the GI50 is 7.87 µM with ACHN renal; 2410 nM in the assay on COLO 205 colon; 2380 nM in the assay on HOP-92 NSCLC; 4.09 µM in the assay on MCF7 breast; 6.08 µM in the assay with MDA-MB-435; 5.46 µM in the assay with NCI-H226 lung. Further, the GI50 in the assay with NCI-H460 lung is 8290 nM; in the assay with NCI/ADR-RES ovarian it was 10.6 µM; in the assay with OVCAR-4 ovarian, 8.69 µM; in the assay on UACC-257 melanoma it was 6.81 µM. Also, the TGI is 21.2 µM in the assay on ACHN renal; 6.34 µM in the assay on COLO 205 colon; 12.3 µM in the assay with HOP-92 NSCLC; 17.1 µM in the assay with MCF7 breast; 23.6 µM with MDA-MB-435; 19.2 µM in the assay on NCI-H226 lung. In addition, the TGI came to 46 µM in the assay on NCI-H460 lung, 69.4 µM in the assay on NCI/ADR-RES ovarian, 34.8 µM in the assay with OVCAR-4 ovarian and 32.3 µM in the assay on UACC-257 melanoma.
As for `OC(c1cc(C(F)(F)F)nc2c(C(F)(F)F)cccc12)C1CCCCN1` (stereo not given), the GI50 was 2.69 µM with ACHN renal; 1830 nM with COLO 205 colon; 1010 nM in the assay on HOP-92 NSCLC; 1.85 µM in the assay with MCF7 breast; 1.8 µM with MDA-MB-435; 1.8 µM in the assay with NCI-H226 lung. Further, the GI50 is 2070 nM in the assay on NCI-H460 lung, 2.31 µM in the assay on NCI/ADR-RES ovarian, 2.81 µM with OVCAR-4 ovarian and 2.2 µM in the assay with UACC-257 melanoma. Besides, the TGI is 7.05 µM in the assay with ACHN renal; 3.3 µM in the assay on COLO 205 colon; 3.69 µM with HOP-92 NSCLC; 3.49 µM with MCF7 breast; 3.66 µM in the assay on MDA-MB-435; 3.7 µM in the assay on NCI-H226 lung. Further, the TGI in the assay with NCI-H460 lung was found to be 4.14 µM; in the assay with NCI/ADR-RES ovarian, 5.95 µM; with OVCAR-4 ovarian, 7.07 µM; with UACC-257 melanoma, 6.53 µM.

As usually defined, the GI50 is the concentration that inhibits growth by half. The term TGI denotes the concentration at which net growth stops. The low end stands for greater sensitivity of the cells, the high end for lower sensitivity of the cells.
